The source of these data is US20050074408A1, “Keto cannabinoids with therapeutic indications” (University of Connecticut, priority 2002, published 2005).

By Ki is commonly meant the dissociation constant of the complex between target and ligand, obtained from inhibition or displacement.

Where two headings read alike, the source gives them in different places.

One series concerns the target T1, CB1 cannabinoid receptor (Rattus norvegicus, UniProt P20272).
T1 construct: membranes were prepared from rat forebrain membranes; from tissue; host or cells: rat forebrain
In words: CB1 receptor binding assay ([3H] CP-55,940 displacement, rat forebrain membranes). As to conditions: 0.8 nM [3H] CP-55,940. On the procedure:
Some of the inventive compounds were tested for CB2 receptor binding affinity and for CB1 receptor affinity (to determine selectivity for the CB2 receptor). As used herein, “binding affinity” is represented by the Ki value which is the inhibition constant correlated with the concentration of an analog required to occupy the 50% of the total number (Bmax) of the receptors. The lower the Ki value the higher the binding affinity. […] For the CB1 receptor binding studies, membranes were prepared from rat forebrain membranes according to the procedure of P. R. Dodd et al, A Rapid Method for Preparing Synaptosomes: Comparison with Alternative Procedures, Brain Res., 107-118 (1981). The binding of the novel analogues to the CB1 cannabinoid receptor was assessed as described in W. A. Devane et al, Determination and Characterization of a Cannabinoid Receptor in a Rat Brain, Mol. Pharmacol., 34, 605-613 (1988) and A. Charalambous et al, 5′-azido Δ^8−THC: A Novel Photoaffinity Label for the Cannabinoid Receptor, J. Med. Chem., 35, 3076-3079 (1992) with the following changes. The above articles are incorporated by reference herein.
(§1) Membranes, previously frozen at −80° C., were thawed on ice. To the stirred suspension was added three volumes of TME (25 mM Tris-HCl buffer, 5 mM MgCl2 and 1 mM EDTA) at a pH 7.4. The suspension was incubated at 4° C. for 30 min. At the end of the incubation, the membranes were pelleted and washed three times with TME.
The treated membranes were subsequently used in the binding assay described below. Approximately 30 μg of membranes were incubated in silanized 96-well microtiter plate with TME containing 0.1% essentially fatty acid-free bovine serum albumin (BSA), 0.8 nM [^3H] CP-55,940, and various concentrations of test materials in a final volume of 200 μL. The assays were incubated for 1 hour at 30° C. and then immediately filtered using Packard Filtermate 196 harvester and Whatman GF/C filterplates and washed with wash buffer (TME) containing 0.5% BSA. Radioactivity was detected using MicroScint 20 scintillation cocktail added directly to the dried filterplates, and the filterplates were counted using a Packard Instruments Top-Count. Nonspecific binding was assessed using 100 nM CP-55,940. Data collected from three independent experiments performed with duplicate determinations was normalized between 100% and 0% specific binding for [^3H] CP-55,940, determined using buffer and 100 nM CP-55,940. The normalized data was analyzed using a 4-parameter nonlinear logistic equation to yield IC50 values. Data from at least two independent experiments performed in duplicate was used to calculate IC50 values which were converted to Ki values using the assumptions of Cheng et al, Relationship Between the Inhibition Constant (Ki) and the concentration of Inhibitor which causes 50% Inhibition (IC50) of an Enzymatic Reaction, Biochem. Pharmacol., 22, 3099-3102, (1973), which is incorporated by reference herein.

The target of a further series is T2, CB2 receptor (Mus musculus, UniProt P47936).
T2 construct: membranes were prepared from frozen mouse spleen; from tissue; host or cells: mouse spleen
In words: CB2 receptor binding assay ([3H] CP-55,940 displacement, mouse spleen membranes). On the procedure:
as §1
The treated membranes were subsequently used in the binding assay described below. Approximately 30 μg of membranes were incubated in silanized 96-well microtiter plate with TME containing 0.1% essentially fatty acid-free bovine serum albumin (BSA), 0.8 nM [^3H] […] Radioactivity was detected using MicroScint 20 scintillation cocktail added directly to the dried filterplates, and the filterplates were counted using a Packard Instruments Top-Count. […] Data collected from three independent experiments performed with duplicate determinations was normalized between 100% and 0% specific binding for [^3H] […] The normalized data was analyzed using a 4-parameter nonlinear logistic equation to yield IC50 values.
Silanized centrifuge tubes were used throughout to minimize receptor loss due to adsorption. The CB2 binding assay was conducted in the same manner as for the CB1 binding assay. The binding affinities (Ki) were also expressed in nanomoles (nM).

Series [1] in a line: Fluorescence assay protocol (absorption, excitation and emission scans in MeOH). It is filed as physicochemical. On the procedure: The fluorescent properties of some of the inventive compounds were examined using the following fluorescence assay protocol. All samples were processed in the same manner and diluted in JT BAKER PHOTREX Grade MeOH. Cuvettes and flasks were cleaned and rinsed with distilled water then rinsed twice with MeOH. Samples were kept in the freezer prior to testing. NSG Precision Quartz Cuvettes were used for absorption and spectral scans. Samples were diluted with methanol to a final volume of 5 mL. A 100× dilution of the samples in MeOH was performed. Absorption spectra were run using a Beckman DU-40 Spectrophotometer. Guided by absorption spectra, excitation and emission scans were run using an ISA Fluoromax-2 Fluorometer.
500 μL of MeOH was added into sample vial containing about 1 mg of testing compound, and aspirated with pipette to mix. 500 μL sample aliquot was then placed into 5 mL volumetric flask and brought up to volume with MeOH, and 5 mL was used as stock. Serial dilutions in 50 mL volumetric flasks were performed until final concentration of 100× reached. Dilution protocol was repeated for each sample. After dilution, 2.5 mL of sample was placed into a 3 mL Quartz cuvette and the cuvette was placed in ISA Fluoromax-2 Fluorometer. Absorption scan was run in Beckman DU-40 Spectrophotometer. Excitation and emission scans were run and spectral data were collected.

[2] abbreviates: mouse spleen membranes, [3H] CP-55,940, read-out: CB2 Ki.

T2 sequence (P47936 whole entry): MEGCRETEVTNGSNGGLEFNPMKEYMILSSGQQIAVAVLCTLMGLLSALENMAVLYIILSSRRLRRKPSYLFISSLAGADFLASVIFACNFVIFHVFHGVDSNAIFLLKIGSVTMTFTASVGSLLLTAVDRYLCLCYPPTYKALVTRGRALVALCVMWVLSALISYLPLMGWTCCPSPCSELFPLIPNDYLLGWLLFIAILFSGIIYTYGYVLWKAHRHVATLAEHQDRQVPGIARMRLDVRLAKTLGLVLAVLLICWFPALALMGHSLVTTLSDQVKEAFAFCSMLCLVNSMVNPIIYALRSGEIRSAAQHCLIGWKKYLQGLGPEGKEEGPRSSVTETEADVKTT
T1 sequence (P20272 whole entry): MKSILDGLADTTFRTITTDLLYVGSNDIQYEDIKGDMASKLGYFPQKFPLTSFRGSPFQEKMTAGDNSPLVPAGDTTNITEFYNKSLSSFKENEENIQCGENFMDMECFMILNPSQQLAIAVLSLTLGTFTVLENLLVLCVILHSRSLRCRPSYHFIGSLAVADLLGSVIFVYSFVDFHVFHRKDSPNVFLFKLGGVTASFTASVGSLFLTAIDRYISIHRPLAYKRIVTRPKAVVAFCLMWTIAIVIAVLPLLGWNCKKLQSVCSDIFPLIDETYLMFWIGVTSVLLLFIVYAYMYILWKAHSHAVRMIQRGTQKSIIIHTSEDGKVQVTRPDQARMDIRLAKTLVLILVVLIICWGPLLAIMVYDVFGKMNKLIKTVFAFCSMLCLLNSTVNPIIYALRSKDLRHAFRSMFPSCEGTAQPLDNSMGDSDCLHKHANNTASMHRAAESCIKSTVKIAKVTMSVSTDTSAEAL

In the case of `CCCCCCc1cc2c3c(c(=O)oc2cc1O)CCC(C)C3` (centres unmarked) [Compound 1], the Ki on CB1 cannabinoid receptor amounted to 8610 nM; on CB2 receptor (setting [2]), 5630 nM.

In the case of `CCCCCC(C)Oc1cc(O)c2c3c(c(=O)oc2c1)CCC(C)C3` (centres unmarked) [Compound 2], affinity on CB1 cannabinoid receptor was put at a Ki of 150 nM. The Ki at CB2 receptor (setting [2]) is 25 nM. In addition, in series [1], the “Absorbance Peak” value turned out to be 320 nm, the “Fluorescence Emission Peak” value was determined as 423 nm, the “Fluorescence Excitation Peak” value is 326 nm and the “Mol Extinction” value was found to be 13900 mol⁻¹ cm⁻¹ L⁻¹. The “Stoke's Shift” value in series [1] amounted to 97 nm.

`CCCCCCC(C)Oc1cc(O)c2c3c(c(=O)oc2c1)CCC(C)C3` (centres unmarked) [Compound 3]: the figures for the Ki at CB1 cannabinoid receptor and on CB2 receptor (setting [2]) were 30 nM and 6 nM, respectively.

In turn, `CCCCCCN(C)c1cc(O)c2c3c(c(=O)oc2c1)CCC(C)C3` (centres unmarked) [Compound 5] returned an inhibition constant (Ki) at CB1 cannabinoid receptor of 2000 nM. For the same molecule, on CB2 receptor (setting [2]), the inhibitory constant (Ki) was determined as 1660 nM. In addition, in series [1], the “Absorbance Peak” value is reported as 364 nm, the “Fluorescence Emission Peak” value amounted to 460 nm, the “Fluorescence Excitation Peak” value was found to be 368 nm and the “Mol Extinction” value is 18600 mol⁻¹ cm⁻¹ L⁻¹. Besides, the “Stoke's Shift” value in series [1] is on record as 92 nm.

In turn, `CCCCCCCN(C)c1cc(O)c2c3c(c(=O)oc2c1)CCC(C)C3` (centres unmarked) [Compound 6] had a Ki at CB1 cannabinoid receptor of 122 nM. The Ki on CB2 receptor (setting [2]) was 128 nM. For the same molecule, in series [1], the “Absorbance Peak” value was 364 nm, the “Fluorescence Emission Peak” value is on record as 460 nm, the “Fluorescence Excitation Peak” value was found to be 367 nm and the “Mol Extinction” value is 18000 mol⁻¹ cm⁻¹ L⁻¹. In addition, the “Stoke's Shift” value in series [1] was found to be 93 nm.

In the case of `CCCCCCN(C)c1cc(O)cc2oc(=O)c3c(c12)CC(C)CC3` (centres unmarked) [Compound 7], the inhibition constant Ki on CB1 cannabinoid receptor stood at 160 nM; at CB2 receptor (setting [2]), 288 nM.

With `CCCCCCCN(C)c1cc(O)cc2oc(=O)c3c(c12)CC(C)CC3` (centres unmarked) [Compound 8], the Ki at CB1 cannabinoid receptor came out at 2580 nM; at CB2 receptor, 824 nM.

As to `CCCCCCCN(C)c1cc2oc(=O)c3ccc(C)cc3c2c(O)c1Br` [Compound 9], the results for the Ki at CB1 cannabinoid receptor and on CB2 receptor (setting [2]) were 50 nM and 3 nM, respectively.

On to `CCCCCCCN(C)c1cc(O)c2c(oc(=O)c3ccc(C)cc32)c1Br` [Compound 10], for which the results for the Ki on CB1 cannabinoid receptor and on CB2 receptor (setting [2]) were 9 nM and 0.7 nM, respectively.

Turning to `CCCCCCCN(C)c1cc(O)c2c(c1)oc(=O)c1ccc(C(F)(F)F)cc12` [Compound 11], the inhibition constant Ki at CB1 cannabinoid receptor is 6680 nM; on CB2 receptor (setting [2]) it was 1680 nM.

Regarding `CCCCCCCN(C)c1cc(OC)c2c(c1)oc(=O)c1ccc(C(F)(F)F)cc12` [Compound 12], the inhibition constant (Ki) was determined as 6360 nM at CB1 cannabinoid receptor and 1480 nM at CB2 receptor (setting [2]).

In the case of `CCCCCCCN(C)c1cc(O)c2c(c1)oc(=O)c1ccc(C)cc12` [Compound 13], at CB1 cannabinoid receptor, the affinity corresponds to a Ki of 140 nM. For the same molecule, the inhibition constant (Ki) at CB2 receptor (setting [2]) is 16 nM. In series [1], the “Absorbance Peak” value is 316 nm, the “Fluorescence Emission Peak” value stood at 519 nm, the “Fluorescence Excitation Peak” value amounted to 319 nm and the “Mol Extinction” value amounted to 22700 mol⁻¹ cm⁻¹ L⁻¹. In addition, the “Stoke's Shift” value in series [1] came to 200 nm.

Regarding `CCCCCCCN(C)c1cc(OC)c2c(c1)oc(=O)c1ccc(C)cc12` [Compound 14], affinity on CB1 cannabinoid receptor was put at a Ki of 1260 nM. On CB2 receptor (setting [2]), the inhibitory constant (Ki) amounted to 90 nM. Moreover, in series [1], the “Absorbance Peak” value amounted to 405 nm, the “Fluorescence Emission Peak” value is reported as 465 nm, the “Fluorescence Excitation Peak” value was 405 nm and the “Mol Extinction” value came to 11400 mol⁻¹ cm⁻¹ L⁻¹. In series [1], the “Stoke's Shift” value is 60 nm.

At CB1 cannabinoid receptor, `CCCCCCCN(C)c1cc(O)c2c(c1)oc(=O)c1ccc(O)cc12` [Compound 15] yielded an inhibition constant Ki of 990 nM. For the same molecule, the inhibition constant Ki on CB2 receptor (setting [2]) was 23 nM. Further, in series [1], the “Absorbance Peak” value was 318 nm, the “Fluorescence Emission Peak” value is on record as 502 nm, the “Fluorescence Excitation Peak” value turned out to be 320 nm and the “Mol Extinction” value came out at 23400 mol⁻¹ cm⁻¹ L⁻¹. The “Stoke's Shift” value in series [1] was determined as 182 nm.

In the case of `CCCCCCCN(C)c1cc(O)c2c(c1)oc(=O)c1ccc(OC)cc12` [Compound 16], the inhibitory constant (Ki) on CB1 cannabinoid receptor is 1300 nM. At CB2 receptor, this molecule had a Ki of 148 nM. Besides, in series [1], the “Absorbance Peak” value worked out at 317 nm, the “Fluorescence Emission Peak” value came out at 498 nm, the “Fluorescence Excitation Peak” value was 321 nm and the “Mol Extinction” value is 21800 mol⁻¹ cm⁻¹ L⁻¹. Further, the “Stoke's Shift” value in series [1] amounted to 177 nm.

On to `CCCCCCC(C)Oc1cc(O)c2c3c(c(=O)oc2c1)CCC(=O)C3` (centres unmarked) [Compound 17], for which the inhibitory constant (Ki) at CB1 cannabinoid receptor came out at 304 nM; on CB2 receptor, 0.4 nM.

On to `CCCCCCC(C)Oc1cc(OC)c2c3c(c(=O)oc2c1)CCC(=O)C3` (centres unmarked) [Compound 18], for which the Ki turned out to be 8430 nM at CB1 cannabinoid receptor and 355 nM at CB2 receptor (setting [2]).

With `CCCCCCCC(C)(C)c1cc(OC)c2c3c(c(=O)oc2c1)CCC(=O)C3` [Compound 19], the Ki on CB1 cannabinoid receptor was 40 nM; at CB2 receptor (setting [2]), 1 nM.

Regarding `CCCCCCC(C)Oc1cc(OC(=O)CCCCN2CCOCC2)c2c3c(c(=O)oc2c1)CCC(=O)C3` (centres unmarked) [Compound 20], the inhibition constant (Ki) on CB1 cannabinoid receptor turned out to be 6 nM; at CB2 receptor (setting [2]) it was 0.6 nM.

For `CCCCCCCC(C)(C)c1cc(OC)c2c3c(c(=O)oc2c1)CCC(C)C3` (centres unmarked) [Compound 32], in series [1], the “Absorbance Peak” value stood at 327 nm, the “Fluorescence Emission Peak” value was determined as 390 nm, the “Fluorescence Excitation Peak” value came out at 330 nm and the “Stoke's Shift” value is given as 60 nm.

In the case of `CCCCCCC(C)(C)c1cc(O)c2c(c1)oc(=O)c1ccccc12` [Compound 47], the inhibition constant Ki on CB1 cannabinoid receptor worked out at 4790 nM; at CB2 receptor (setting [2]) it was 6.6 nM.

For `CCCCCCC(C)(C)c1cc(O)c2c(c1)oc(=O)c1cc(O)c(O)cc12` [Compound 48], the Ki on CB1 cannabinoid receptor came to 1950 nM; on CB2 receptor (setting [2]), 101 nM.

In the case of `CCCCCCC(C)(C)c1cc(OC)c2c(c1)oc(=O)c1ccncc12` [Compound 49], the Ki on CB1 cannabinoid receptor worked out at 3760 nM; on CB2 receptor (setting [2]) it was 35.4 nM.
